# Data taken from patent US20030095982A1, “Fraction of Cordyceps sinensis and method of isolation thereof” (priority 2001, published 2003).
# Experiments:
# [1] = test system: ovalbumin (OA) induced bronchial hyperresponsiveness; experiment: Pulmonary function test, OA induced bronchial hyperresponsiveness in BNR; format: in vivo, brown Norway rats (BNR)
# Source text: The requirements for animal models include both specificity and the capacity for developing pulmonary histopathological lesions that are similar to those found in the corresponding human disorders. In view of the above considerations, three kinds of animal models were adopted for the experiments used in developing this invention. Two were invasive method and one was non-invasive method. The first and second invasive models were BNR and guinea pig asthma model induced by ovalbumin (OA). Twenty four either BNR (weight ranging from 250˜350 g) or guinea pig (380˜500 g) were divided into three groups. Each group consisted of 8 weight-matched male animals. Both group I and group II BNR were put into a closed chamber (30×30×16 cm plastic box) with two small holes, one serving as a gas inlet and the other as a gas outlet. Two mL of 1% OA was aerosolized by nebulizer and delivered continuously into the closed chamber with a gas delivery flow of 8 l/min. The animal was exposed to OA in the chamber for 10 minutes.
# A second sensitization was performed 7 days later using the same procedure. Another 7 days later, a provocation test was performed. To prevent anaphylaxis and possible death, the animals were pretreated with pyrinamine (10 mg/kg) intraperitoneally 30 minutes before the test. For provocation, the BNR inhaled 3 mL of 4% aerosolized OA by nebulizer for 10 minutes in a closed chamber, using the same procedure as for sensitization. Group I BNR or guinea pig were given Cordyceps sinensis active fraction F-4 4 mg/kg intraperitoneally 30 minutes before OA inhalation provocation. Group II control animals were treated in the same way as […], except that they were sensitized and challenged by breathing aerosolized saline instead of OA and without Cordyceps sinensis pretreatment.
# In the Cordyceps sinensis treatment study, the protocol is similar to pretreatment except F-4 is administed after OA inhalation provocation.
# For the lung function and acetylcholine provocation portion of the study, all animals were anesthetized with sodium pentobarbitone (50 mg/kg intraperitoneally). Jugular vein cannulation (PE-10 polyethylene tube filled with heparin, 1000 iu/mL in normal saline) and tracheostomy were performed. Lung function test was done 24 hours after the OA provocation test. The BNRs or pignea pigs were put in a body box (Model 6 Body Box, Buxco, Troy, N.Y., USA) in a supine position while the mice were put in a body box for mice (Anesthetized Body Box for Mice, Buxco, Troy, N.Y., USA). Gallamine triethiodide (4 mg/kg) was intravenously injected to induce paralysis and inhibit spontaneous breathing. A small animal ventilator set at a tidal volume of 6 mL/kg and a respiratory rate of 60 times/minute for the BNRs, 120 times/minute for the mice was used to ventilate the small animals. All animals were stable without spontaneous breathing 5 minutes after gallamine was given. Pulmonary function tests (PET) as described below were measured at baseline. Therefore, 25, 50, 75 and 100 μg/kg of acetylcholine (Ach) were given intravenously at 30 minute intervals. PETs were done 5 seconds after each dose of acetylcholine. Before each successive dose of Ach, the flow volume loop returned to baseline.
# The airway opening pressure (PaO) was measured by a Gould pressure transducer at the tracheotomy. Respiratory flow was measured by a DP-45-14 differential pressure transducer. When tidal breathing was examined, 3-layer 325-mesh wire screen was used to measure the pressure difference. When a maximal forced expiratory maneuver (MFEM) was performed, a 6-layer 325-mesh wire screen was used to measure the pressure difference.
# For the MFEM, the lungs were inflated to total lung capacity 9TLC, lung volume at PaO=35 cm H2O) 3 times; the inflation was regulated by a solenoid valve. At peak volume during the third inflation, the inflation valve was shut off and another solenoid valve was opened immediately for deflation. […]
# [2] = test system: ovalbumin (OA) induced bronchial hyperresponsiveness; experiment: Bronchoalveolar lavage cell counts, OA model in BNR; format: in vivo, brown Norway rats (BNR)
# Description: After completion of the pulmonary function tests, BAL was performed using 10 mL normal saline twice (total 20 mL) for BNR or guinea pig. The BAL fluid was collected into plastic flasks containig 1,500 units of heparin and then strained through 1 layer of surgical gauze and centrifuged at 500 g for 5 min. The cell pellet was washed 3 times with sterile saline solution and resuspended in RPMI-1640. A small portion was taken for evaluation of cell number and viability, as assessed by trypan blue exclusion.
# Differential counts were obtained using a cytocentrifuge preparation (Cytospin; Shandon Southern Instruments, Sewickley, Pa.) stained with Liu's stain (modified May-Giemsa stain).
# ICR mice = experiment: Acute toxicity test in ICR mice; format: in vivo; details: normal diet with 2% ratio, killed after 7 days
# Source text: The methodology used to carry out acute toxicity testing for this invention was as follows: ICR mice that had been fed on a normal diet with the above active compound included to constitute a 2% ratio were killed after 7 days in order to ascertain whether there was any evidence of toxicity.
# B: Compound F8: This refers to F8 (for spectroscopic and structural data, see FIG. 2a, 2b, and 3). The molecular formula of compound F8 is C28H46O3. To confirm the potential applicability of the above fractions and to check for obvious toxicity or mutagenicity, Ames test and acute toxicity test were conducted on white mice (ICR-mice) using the F4 fraction or compound F8.
# [3] = baseline, 4 mg/Kg intraperitoneally 30 minutes before OA inhalation provocation, mean±SD
# [4] = pretreated before OA inhalation provocation (group I) vs OA-treated (group II), Ach doses higher than 25 μg/kg
# [5] = BAL fluid, 4 mg/Kg intraperitoneally 30 minutes before OA inhalation provocation
compound,measurement,setting,value
"CC(C)[C@@H](C)C=C[C@@H](C)[C@H]1CC[C@H]2C3=C[C@@H](O)[C@@]4(O)C[C@@H](O)CC[C@]4(C)[C@H]3CC[C@]12C [F8, (24R)-ergosta-7,22-diene-3β, 5α, 6β,-triol]",Cdyn (total dynamic lung compliance),[1]; [3],0.53 ± 0.05 mL/cm H2O
same,MFEF 25%,[1]; [3],35.3 ± 4.5 mL/s
same,MFEF 50%,[1]; [3],75.7 ± 4.6 mL/s
same,MFEF 75%,[1]; [3],101.5 ± 4.9 mL/s
same,PaO (airway opening pressure at tidal breathing),[1]; [3],4.3 ± 0.6 cmH2O
same,Peak flow,[1]; [3],105.6 ± 4.7 mL/s
same,Total lung capacity,[1]; [3],15.4 ± 1.5 mL
same,"percentage of baseline MFEF 25% TLC, Ach dose response",[1]; [4],group II was significantly lower then group I
same,"percentage of baseline MFEF 50% TLC, Ach dose response",[1]; [4],group II was significantly lower then group I
same,PD20 Ach (dose of Ach producing a 20% drop) for MFEF 50% and MFEF 25%,"[1]; treatment study (administered after OA inhalation provocation), group I vs OA-treated group II",significantly (p<0.001) lower in group II than in the other 2 groups
same,Eosinophil Cell count,[2]; [5],4.26 ± 0.5 (×10^4)/mL
same,Eosinophil Percentage of total cell count (%),[2]; [5],28.8 ± 4.5 %
same,Lymphocyte Cell count,[2]; [5],3.37 ± 0.51 (×10^4)/mL
same,Lymphocyte Percentage of total cell count (%),[2]; [5],22.8 ± 4.5 %
same,Macrophage Cell count,[2]; [5],6.85 ± 0.64 (×10^4)/mL
same,Macrophage Percentage of total cell count (%),[2]; [5],46.3 ± 5.5 %
same,Neutrophil Cell count,[2]; [5],0.31 ± 0.4 (×10^4)/mL
same,Neutrophil Percentage of total cell count (%),[2]; [5],2.1 ± 0.5%
same,Total cell count,[2]; [5],14.8 ± 3.2 (×10^4)/mL
same,"BAL total cell counts, eosinophils and lymphocytes versus group II",[2]; treatment study (administered after OA inhalation provocation),Group II had higher total cell counts than the other 2 groups
same,acute toxicity,ICR mice,no obvious evidence of toxicity or mutagenic properties
